From ChEMBL document CHEMBL1177817, “Betulin and ursolic acid synthetic derivatives as inhibitors of Papilloma virus” (Bioorg Med Chem Lett, 2010)
Calls of active or inactive are those of the source. No cut-off for these calls is given here.

Columns and labels:
Assay type in all cases: functional, organism-based
Influenza A virus [1] = assay: Antiviral activity against influenza A virus H3N2 assessed as inhibition of viral replication
Influenza A virus [2] = assay: Antiviral activity against influenza A virus H5N1 assessed as inhibition of viral replication
Influenza B virus = assay: Antiviral activity against influenza B virus assessed as inhibition of viral replication
Human alphaherpesvirus 1 = assay: Antiviral activity against HSV1 assessed as inhibition of viral replication
Human alphaherpesvirus 2 = assay: Antiviral activity against HSV2 assessed as inhibition of viral replication
Hepatitis B virus = assay: Antiviral activity against HBV assessed as inhibition of viral DNA replication at 10 uM
Hepatitis C virus = assay: Antiviral activity against HCV assessed as inhibition of viral replication; conditions: Hepacivirus hominis
Influenza A virus [3] = assay: Antiviral activity against influenza A virus H1N1 assessed as inhibition of viral replication

## C[C@H]1[C@H](C)CC[C@]2(C(=O)O)CC[C@]3(C)C(=CC[C@@H]4[C@@]5(C)CC/C(=N\OCCC#N)C(C)(C)[C@@H]5CC[C@]43C)[C@H]12
Influenza A virus [1]
  Activity: inactive
Influenza A virus [2]
  Activity: inactive
Influenza B virus
  Activity: inactive
Human alphaherpesvirus 1
  Activity: inactive
Human alphaherpesvirus 2
  Activity: inactive

## C=C(C)[C@@H]1CC[C@]2(COCCCNCCC#N)CC[C@]3(C)[C@H](CC[C@@H]4[C@@]5(C)CC[C@H](OC(=O)c6cccnc6)C(C)(C)[C@@H]5CC[C@]43C)[C@@H]12
Influenza A virus [1]
  Activity: inactive
Influenza A virus [2]
  Activity: inactive
Influenza B virus
  Activity: inactive
Human alphaherpesvirus 1
  Activity: inactive
Human alphaherpesvirus 2
  Activity: inactive

## C=C(C)[C@@H]1CC[C@]2(COC(=O)c3cccnc3)CC[C@]3(C)[C@H](CC[C@@H]4[C@@]5(C)CC[C@H](OC(=O)c6cccnc6)C(C)(C)[C@@H]5CC[C@]43C)[C@@H]12
Influenza A virus [1]
  Activity: inactive
Influenza A virus [2]
  Activity: inactive
Influenza B virus
  Activity: inactive
Human alphaherpesvirus 1
  Activity: inactive
Human alphaherpesvirus 2
  Activity: inactive

## C#C[C@@H]1CC[C@]2(CO)CC[C@]3(C)[C@H](CC[C@@H]4[C@@]5(C)CC[C@H](O)C(C)(C)[C@@H]5CC[C@]43C)[C@@H]12
Hepatitis B virus
  Activity: inactive
Influenza A virus [1]
  Activity: inactive
Influenza A virus [2]
  Activity: inactive
Influenza B virus
  Activity: inactive
Human alphaherpesvirus 1
  Activity: inactive
Human alphaherpesvirus 2
  Activity: inactive
Hepatitis C virus
  Activity: Active

## C=C(C)[C@@H]1CC[C@]2(COC(=O)/C=C/c3ccc(OC)cc3)CC[C@]3(C)[C@H](CC[C@@H]4[C@@]5(C)CC[C@H](O)C(C)(C)[C@@H]5CC[C@]43C)[C@@H]12
Influenza A virus [3]
  Activity: Active

## C=C(C)[C@@H]1CC[C@]2(C(=O)O)CC[C@]3(C)[C@H](CC[C@@H]4[C@@]5(C)CC[C@H](OC(=O)c6cccnc6)C(C)(C)[C@@H]5CC[C@]43C)[C@@H]12
Influenza A virus [1]
  Activity: inactive
Influenza A virus [2]
  Activity: inactive
Influenza B virus
  Activity: inactive
Human alphaherpesvirus 1
  Activity: inactive
Human alphaherpesvirus 2
  Activity: inactive
